Test: xn = mol fraction of the nth substance listed
Details: 100 kPa, Liquid; for speed of sound: Frequency=5 MHz, Pulse-echo method; for mass density: Vibrating tube method

OCCOCCOCCO [triethylene glycol] + O
Details | mass density [kg/m3] | speed of sound [m/s]
293.15 K, x1 = 0.0107 | 1010.53 | –
293.15 K, x1 = 0.02047 | 1020.73 | –
293.15 K, x1 = 0.03972 | 1038.14 | –
293.15 K, x1 = 0.04979 | 1045.97 | –
293.15 K, x1 = 0.06996 | 1059.39 | –
293.15 K, x1 = 0.09424 | 1072.14 | –
293.15 K, x1 = 0.1481 | 1091 | –
293.15 K, x1 = 0.1752 | – | 1744.6
293.15 K, x1 = 0.1869 | – | 1743.5
293.15 K, x1 = 0.2006 | 1101.53 | –
293.15 K, x1 = 0.2052 | – | 1740.7
293.15 K, x1 = 0.2239 | – | 1736.8
293.15 K, x1 = 0.2502 | 1107.61 | –
293.15 K, x1 = 0.2513 | – | 1730.1
293.15 K, x1 = 0.2755 | – | 1723.7
293.15 K, x1 = 0.2988 | 1111.51 | –
293.15 K, x1 = 0.3023 | – | 1716.7
293.15 K, x1 = 0.3492 | 1114.3 | –
293.15 K, x1 = 0.3754 | – | 1699
293.15 K, x1 = 0.3925 | 1116.06 | –
293.15 K, x1 = 0.4338 | – | 1686.6
293.15 K, x1 = 0.4502 | 1117.81 | –
293.15 K, x1 = 0.4877 | 1118.7 | –
293.15 K, x1 = 0.5004 | 1118.97 | –
293.15 K, x1 = 0.5151 | – | 1671.3
293.15 K, x1 = 0.5739 | 1120.23 | –
293.15 K, x1 = 0.58 | 1120.32 | –
293.15 K, x1 = 0.6233 | – | 1654.9
293.15 K, x1 = 0.6465 | 1121.14 | –
293.15 K, x1 = 0.651 | 1121.19 | –
293.15 K, x1 = 0.7008 | 1121.67 | –
293.15 K, x1 = 0.7471 | 1122.06 | –
293.15 K, x1 = 0.7677 | 1122.21 | –
293.15 K, x1 = 0.7815 | – | 1641.2
293.15 K, x1 = 0.82 | 1122.57 | –
293.15 K, x1 = 0.8623 | 1122.83 | –
293.15 K, x1 = 0.8792 | 1122.93 | –
293.15 K, x1 = 0.8924 | – | 1634.7
293.15 K, x1 = 0.8975 | 1123.03 | –
293.15 K, x1 = 0.9203 | 1123.15 | –
293.15 K, x1 = 0.9514 | 1123.32 | –
293.15 K, x1 = 0.9634 | – | 1630.2
293.15 K, x1 = 0.9692 | 1123.41 | –
293.15 K, x1 = 1 | 1123.56 | 1629
298.15 K, x1 = 0.000655 | – | 1499.7
298.15 K, x1 = 0.003093 | – | 1510.2
298.15 K, x1 = 0.008719 | – | 1533.1
298.15 K, x1 = 0.0107 | 1009.15 | –
298.15 K, x1 = 0.01513 | – | 1557
298.15 K, x1 = 0.02047 | 1019.12 | –
298.15 K, x1 = 0.02053 | – | 1575.4
298.15 K, x1 = 0.0297 | – | 1603.3
298.15 K, x1 = 0.03817 | – | 1625.7
298.15 K, x1 = 0.03972 | 1036.1 | –
298.15 K, x1 = 0.04526 | – | 1642.1
298.15 K, x1 = 0.04979 | 1043.71 | –
298.15 K, x1 = 0.05106 | – | 1654.1
298.15 K, x1 = 0.05839 | – | 1667.6
298.15 K, x1 = 0.0674 | – | 1681.9
298.15 K, x1 = 0.06996 | 1056.75 | –
298.15 K, x1 = 0.0766 | – | 1694.1
298.15 K, x1 = 0.08268 | – | 1701
298.15 K, x1 = 0.08879 | – | 1707
298.15 K, x1 = 0.09424 | 1069.14 | –
298.15 K, x1 = 0.09568 | – | 1712.9
298.15 K, x1 = 0.1024 | – | 1717.7
298.15 K, x1 = 0.1041 | – | 1718.8
298.15 K, x1 = 0.1099 | – | 1722.2
298.15 K, x1 = 0.1152 | – | 1724.8
298.15 K, x1 = 0.1205 | – | 1727
298.15 K, x1 = 0.127 | – | 1729.3
298.15 K, x1 = 0.1291 | – | 1729.9
298.15 K, x1 = 0.1383 | – | 1731.9
298.15 K, x1 = 0.1474 | – | 1733.1
298.15 K, x1 = 0.1481 | 1087.52 | –
298.15 K, x1 = 0.1587 | – | 1733.7
298.15 K, x1 = 0.1675 | – | 1733.4
298.15 K, x1 = 0.1757 | – | 1732.8
298.15 K, x1 = 0.1834 | – | 1731.9
298.15 K, x1 = 0.2006 | 1097.87 | –
298.15 K, x1 = 0.2026 | – | 1728.7
298.15 K, x1 = 0.221 | – | 1724.7
298.15 K, x1 = 0.2393 | – | 1720.1
298.15 K, x1 = 0.2502 | 1103.88 | –
298.15 K, x1 = 0.2566 | – | 1715.5
298.15 K, x1 = 0.2906 | – | 1706.3
298.15 K, x1 = 0.2988 | 1107.76 | –
298.15 K, x1 = 0.3492 | 1110.52 | –
298.15 K, x1 = 0.3533 | – | 1690.5
298.15 K, x1 = 0.3925 | 1112.26 | –
298.15 K, x1 = 0.427 | – | 1674.4
298.15 K, x1 = 0.4502 | 1113.99 | –
298.15 K, x1 = 0.4877 | 1114.87 | –
298.15 K, x1 = 0.5004 | 1115.13 | –
298.15 K, x1 = 0.5126 | – | 1658.3
298.15 K, x1 = 0.5739 | 1116.38 | –
298.15 K, x1 = 0.58 | 1116.47 | –
298.15 K, x1 = 0.5907 | – | 1645.7
298.15 K, x1 = 0.6465 | 1117.3 | –
298.15 K, x1 = 0.651 | 1117.35 | –
298.15 K, x1 = 0.7008 | 1117.83 | –
298.15 K, x1 = 0.7471 | 1118.22 | –
298.15 K, x1 = 0.7663 | – | 1627.2
298.15 K, x1 = 0.7677 | 1118.37 | –
298.15 K, x1 = 0.82 | 1118.72 | –
298.15 K, x1 = 0.8623 | 1118.97 | –
298.15 K, x1 = 0.8792 | 1119.06 | –
298.15 K, x1 = 0.8917 | – | 1620
298.15 K, x1 = 0.8975 | 1119.16 | –
298.15 K, x1 = 0.9203 | 1119.28 | –
298.15 K, x1 = 0.9514 | 1119.44 | –
298.15 K, x1 = 0.9628 | – | 1615.6
298.15 K, x1 = 0.9692 | 1119.53 | –
298.15 K, x1 = 1 | 1119.69 | 1613.5
303.15 K, x1 = 0.001004 | – | 1513.5
303.15 K, x1 = 0.002763 | – | 1520.4
303.15 K, x1 = 0.007937 | – | 1539.9
303.15 K, x1 = 0.0107 | 1007.53 | –
303.15 K, x1 = 0.01123 | – | 1551.5
303.15 K, x1 = 0.01908 | – | 1577
303.15 K, x1 = 0.02047 | 1017.29 | –
303.15 K, x1 = 0.0244 | – | 1592.6
303.15 K, x1 = 0.03263 | – | 1614.3
303.15 K, x1 = 0.03972 | 1033.87 | –
303.15 K, x1 = 0.0428 | – | 1637.2
303.15 K, x1 = 0.05068 | – | 1652.5
303.15 K, x1 = 0.05793 | – | 1664.7
303.15 K, x1 = 0.06625 | – | 1676.8
303.15 K, x1 = 0.07426 | – | 1686.6
303.15 K, x1 = 0.08178 | – | 1694.5
303.15 K, x1 = 0.08886 | – | 1700.8
303.15 K, x1 = 0.0936 | – | 1704.5
303.15 K, x1 = 0.09852 | – | 1707.8
303.15 K, x1 = 0.102 | – | 1709.9
303.15 K, x1 = 0.1059 | – | 1712.1
303.15 K, x1 = 0.1101 | – | 1714.1
303.15 K, x1 = 0.1102 | – | 1714.2
303.15 K, x1 = 0.1147 | – | 1716
303.15 K, x1 = 0.1193 | – | 1717.7
303.15 K, x1 = 0.1248 | – | 1719.3
303.15 K, x1 = 0.1295 | – | 1720.5
303.15 K, x1 = 0.1308 | – | 1720.7
303.15 K, x1 = 0.1337 | – | 1721.3
303.15 K, x1 = 0.1393 | – | 1722.1
303.15 K, x1 = 0.1423 | – | 1722.4
303.15 K, x1 = 0.1457 | – | 1722.6
303.15 K, x1 = 0.1695 | – | 1722.1
303.15 K, x1 = 0.1857 | – | 1719.9
303.15 K, x1 = 0.2042 | – | 1716.3
303.15 K, x1 = 0.2252 | – | 1711.2
303.15 K, x1 = 0.2499 | – | 1704.6
303.15 K, x1 = 0.3027 | – | 1690
303.15 K, x1 = 0.3394 | – | 1680.6
303.15 K, x1 = 0.4052 | – | 1665.7
303.15 K, x1 = 0.4916 | – | 1649
303.15 K, x1 = 0.6074 | – | 1630
303.15 K, x1 = 0.7552 | – | 1614
303.15 K, x1 = 0.8683 | – | 1607.4
303.15 K, x1 = 0.9616 | – | 1601.7
303.15 K, x1 = 1 | – | 1599.1

Reference: the NIST ThermoML archive (doi:10.1016/j.jct.2015.05.024)
